Laboratory results taken from US8101411B2, “Method for production of corosolic acid in suspension culture of plant cells” (Samyang Genex Corporation, priority 2005, dated 2012).

Tests used:
[1] = system: suspension-cultured cells of Eriobotrya japonica; test: Addition of inducing agent (elicitor) at the production stage of two-stage high cell-density suspension culture; format: cell-based; conditions: for Cell Dry Weight / Productivity of Corosolic acid / Productivity of Corosolic acid (% DW): 14 days
Description: The cell dry weight was obtained by filtering sampled plant cell culture through Watman no. 4 filter paper using a Buchner funnel, and oven drying at a temperature of 60° C. for 24 hours. […] The % DW (Dry Weight) was calculated from the calculated concentration of corosolic acid. […] The volumetric productivity (mg/L) was calculated by multiplying the calculated % DW content with the cell concentration (g/L, DW) in cell culture. 50 ml of the cell lines which were obtained in EXAMPLE 1-2 were cultured in LS medium with addition of 10 μM of NAA and 1 μM of BA, and collected after 7 days, and 50 ml of 2× concentration of mB5 medium were mixed and cultured in a 250 ml flask. […] The Eriobotrya japonica cells were cultured according to the method of Example 3,except that the concentration of sucrose added to the mB5 medium as the carbon source at the production stage, and the inoculation ratio of Eriobotrya japonica cell were varied as in Table 7. […] In the two-stage culture by using high cell-density culture of Example 4, 6% of sucrose was added to mB5 medium at the production stage, and the inoculated amount was 6 g/L cell dry weight.

[2] = cited from earlier work
[3] = system: absorption of glucose into cells; conditions: similar to that of insulin; Chem Pharm. Bull. 41(12): 2129-2131, 1993; cited from earlier work
[4] = Methyl jasmonate 400 μM, added at 3-day culture
[5] = AgNO3 2 μM, added at 0-day culture
[6] = AgNO3 4 μM, added at 0 day culture
[7] = AgNO3 6 μM, added at 0-day culture
[8] = Sodium butyrate 1.0 mM, added at 3-day culture

For `CC/C=C\CC1C(=O)CCC1CC(=O)OC` (stereo not shown) [Methyl jasmonate], the “amount of corosolic acid increased by” value ([1]; 400 μM methyl jasmonate, versus control) was 100%, the “Cell Dry Weight” value [1, 4] was 22.72 g/L and the “Productivity of Corosolic acid” value [1, 4] was 1913.16 mg/L. For the same compound, the “Productivity of Corosolic acid (% DW)” value [1, 4] was 8.42 % DW.

In the case of `O=[N+]([O-])[O-].[Ag+]` [AgNO3, silver nitrate], the “maximal concentration of cell increased by” value ([1]; 4 μM added, versus control) was 45%, the “productivity of the suspension-cultured cell” value ([1]; 2-6 μM added to the culture medium, versus control) was “increased the productivity” and the “Productivity of Corosolic acid” value [1, 5] was 1152.07 mg/L. For the same compound, the “Productivity of Corosolic acid (% DW)” value [1, 5] was 4.42 % DW, the “Cell Dry Weight” value ([1]; AgNO3 2 μM, added at 0-day culture, mB5, 6% sucrose, 6 g/L inoculum) was 26.05 g/L and the “Cell Dry Weight” value [1, 6] was 25.66 g/L. For the same compound, the “Productivity of Corosolic acid” value [1, 6] was 1551.78 mg/L, the “Productivity of Corosolic acid (% DW)” value [1, 6] was 6.05 % DW and the “Cell Dry Weight” value [1, 7] was 24.57 g/L. For the same compound, the “Productivity of Corosolic acid” value [1, 7] was 1335.86 mg/L and the “Productivity of Corosolic acid (% DW)” value [1, 7] was 5.44 % DW.

With `CCCC(=O)[O-].[Na+]` [Sodium butyrate] the “amount of corosolic acid increased by” value ([1]; 1 mM sodium butylate, versus control) was 100%, the “Cell Dry Weight” value [1, 8] was 24.54 g/L and the “Productivity of Corosolic acid” value [1, 8] was 2081.13 mg/L. The “Productivity of Corosolic acid (% DW)” value [1, 8] was 8.48 % DW.

In the case of corosolic acid, the “effect on blood-sugar levels” value ([2]; clinical demonstration, Journal of Ethnopharmacology 87: 115 117, 2003) is given as “rawer blood-sugar levels”, the side effects ([2]; in vivo) is given as “without any side effects” and the “activity on absorption of glucose into cells” value [3] is given as “promoting a rapid absorption of glucose into cells”.
